Measured values reported in EP0109697B1, “Rodent bait” (priority 1982, dated 1984).

Experiments:
mice [1] = assay: Feeding trials with various acute poisons in formulation C particles (Example 11), mice; assay type: in vivo; settings: MOUSE; formulation C particle 0.45 × 0.45 mm; bait conc. 22.5 ppm
Procedure: (§1) Particles containing various acute poisons were made according to Formulation C, and feeding trials were carried out with rats and with mice.

Rats [2] = assay: Feeding trials with various acute poisons in formulation C particles (Example 11), rats; assay type: in vivo; settings: RAT, formulation C particle 1.5 × 1.5 mm
Procedure: as §1

female Wistar rats = assay: Feeding test of totally homogeneous aldicarb bait (Example 1), rats; assay type: in vivo, rat; settings: for Kill Rat: 100 ppm aldicarb in medium oatmeal, 5 female Wistar rats
Description: (§2) Except where otherwise stated, baits according to the invention were produced by thoroughly hand mixing the particles with medium oatmeal, and the baits were fed to caged rats and mice as the sole feed. Water was made freely available to them. The baits remaining in each cage were weighed daily, and fresh baits provided each day.
(§3) Totally homoneneous baits were produced by slurrying an acetone solution of aldicarb on medium oatmeal to give a concentrate, then diluting the concentrate with medium oatmeal by hand mixing, to give an aldicarb concentration of 100 ppm. The toxicity of the resulting bait was determined by tests on 5 female Wistar rats and 10 male LACA mice.

male LACA mice [3] = assay: Feeding test of totally homogeneous aldicarb bait (Example 1), mice; assay type: in vivo, mouse; settings: for Kill Mouse: 100 ppm aldicarb in medium oatmeal, 10 male LACA mice
Description: as §2, §3

Wistar females = assay: Feeding test of formulation A 1.25 mg particles in oatmeal (Example 2); assay type: in vivo, rat; settings: one 1.25 mg pellet per 20 grams of oatmeal, 5 Wistar females
Procedure: as §2
The toxicity of aldicarb particles made to formulation A was determined by tests on 5 Wistar females exposed to medium oatmeal containing one 1.25 mg pellet per 20 grams of oatmeal.

[4] = tested on: Heterozygous anti-coagulant resistant rats; assay: Feeding test of formulation A 1.25 mg particles in oatmeal (Example 3); assay type: in vivo, rat; settings: one 1.25 mg particle per 20 grams of oatmeal, bait not changed daily, 5 heterozygous anti-coagulant resistant rats
Procedure: as §2
5 Heterozygous anti-coagulant resistant rats were allowed to feed on bait consisting of medium oatmeal containing one 1.25 mg particle made to formulation A per 20 grams of oatmeal. The bait was weighed daily, but in this example it was not changed daily.

male LACA mice [5] = assay: Feeding test of formulation A 0.5 mg particles in oatmeal (Example 4); assay type: in vivo, mouse; settings: 10 male LACA mice
Procedure: as §2
10 Male LACA mice were fed with bait consisting of medium oatmeal containing one 0.5 mg particle made according to formulation A per 10 grams of oatmeal.

male LACA mice [6] = assay: Feeding test of formulation A 0.2 mg particles in oatmeal (Example 5); assay type: in vivo, mouse; settings: 10 male LACA mice
Procedure: as §2
10 Male LACA mice were permitted to feed on bait consisting of medium oatmeal containing one 0.2 mg particle of formulation A per-2 grams of oatmeal.

male LACA mice [7] = assay: Feeding test of formulation B 0.2 mg particles in oats (Example 6); assay type: in vivo, mouse; settings: 50 g medium oats with 10 particles of formulation B, 0.2 mg aldicarb each; 5 male LACA mice starved for 24 hours; Day 1
Procedure: as §2
5 Male LACA mice were starved for 24 hours and then permitted to feed on 50 g of medium oats containing dispersed therein 10 particles of formulation B each containing 0.2 mg of aldicarb.

[8] = tested on: Male heterozygous resistant rats; assay: Feeding test of formulation B 1.1 mg particles in oatmeal (Example 7); assay type: in vivo, rat; settings: 50 g medium oatmeal with 10 particles of formulation B, 1.1 mg aldicarb each; 3 male heterozygous resistant rats; Day 1
Procedure: as §2
3 Male heterozygous resistant rats were permitted to feed on 50 g medium oatmeal containing 10 particles of formulation B each containing 1.1 mg of aldicarb.

[9] = tested on: female 300-350 gram Wistar rats; assay: Feeding test of mouse bait particles on rats (Example 8); assay type: in vivo, rat; settings: for Mouse bait particles Rat Kill: 0.1 mg aldicarb particles, one per two grams of oatmeal (50 ppm), five female Wistar rats
Procedure: (§4) Particles of a size suitable for consumption whole (without nibbling) by mice, i.e. about 0.5 mm diameter spheres, containing 0.1 mg of aldicarb per particle were produced by a precipitation process.
(§5) The mouse bait particles were distributed in medium oatmeal at the concentration of one per two grams of oatmeal (50 ppm), and the rat bait particles were distributed in medium oatmeal at the concentration of one per twenty grams of oatmeal (50 ppm).
(§6) Ten male 12-18 gram LAC mice and five female 300-350 gram Wistar rats were permitted to feed on the mouse bait; and five female 300-350 gram Wistar rats were allowed to feed on the rat bait. The baits were topped up when necessary to keep a supply of food material available, and water was supplied freely.

male 12-18 gram LAC mice = assay: Feeding test of mouse bait particles on mice (Example 8); assay type: in vivo; settings: for Mouse bait particles Mouse Kill: 0.1 mg aldicarb particles, one per two grams of oatmeal (50 ppm), ten male LAC mice
Procedure: as §4, §5, §6

[10] = tested on: female 300-350 gram Wistar rats; assay: Feeding test of rat bait particles on rats (Example 8); assay type: in vivo; settings: for Rat bait particles Rat Kill: 1.0 mg aldicarb particles, one per twenty grams of oatmeal (50 ppm), five female Wistar rats
Procedure: Suitably larger particles appropriate for rats, i.e. about 1 mm x 1 mm cylinders, containing 1.0 mg of aldicarb per particle were produced by extrusion.
as §5, §6

[11] = tested on: mice with a body weight approximately 20 g; assay: No-choice feeding test of three 100 ppm aldicarb presentations (Example 9), mice; assay type: in vivo, mouse; settings: for Mouse Kill %: no choice, after 5 days
Procedure: (§7) Three baits were produced containing the toxicant aldicarb, each at 100 ppm (0.01%) concentration. Aldicarb was presented in the bait either homogeneously dispersed in the manner of a conventional rodenticide, as discrete 0.4 x 0.4 mm particles, (formulation C) or as discrete 1.0 x 1.0 mm particles. The diluent was medium grade oatmeal in all cases. Tests were carried out on mice with a body weight approximately 20 g, rats with a body weight approximately 250 g, and rabbits with a body weight approximately 2,500 g.
(§8) Baits were offered with no choice of alternative food for five days.

[12] = tested on: rats with a body weight approximately 250 g; assay: No-choice feeding test of three 100 ppm aldicarb presentations (Example 9), rats; assay type: in vivo, rat; settings: after 5 days
Procedure: as §7, §8

in vivo = assay type: in vivo, rabbit; settings: rabbit, in vivo, po; 100 ppm as HOMOGENEOUS; no choice, after 5 days; read-out: Rabbit Kill %
Procedure: as §7, §8

[13] = tested on: rabbits with a body weight approximately 2,500 g; assay: in vivo; assay type: in vivo, rabbit; settings: 100 ppm aldicarb; any of the three formulations
Procedure: as §7, §8

Rats [14] = assay: Determination of optimum particle size (Example 10), rats; assay type: in vivo, rat; settings: formulation C, one particle per 10 g diet base, after 5 days
Description: (§9) Rats were offered medium oatmeal diet containing aldicarb particles (formulation C) at the rate of one per 10 g diet base and mice were offered the particles at the rate of one per 4 g diet base.

mice [15] = assay: Determination of optimum particle size (Example 10), mice; assay type: in vivo, mouse; settings: formulation C, one particle per 4 g diet base, after 5 days
Description: as §9

[16] = formulation A 0.5 mg aldicarb particles, 4 days
[17] = 100 ppm as 0.4 × 0.4 mm particles (formulation C)
[18] = 100 ppm as 1.0 × 1.0 mm particles

Cc1cc(N(C)C)nc(Cl)n1 [CRIMIDINE, 2 chloro-4-(dimethylamino)-6-methylpyrimidine]
DAYS TO KILL (mice [1]): 5 days
Kill (%) (mice [1]): 100%
DAYS TO KILL (Rats [2]; bait conc. 250 ppm): 3 days
Kill (%) (Rats [2]; bait conc. 250 ppm): 100%

CC(=O)O[C@@H]1C[C@]2(O)[C@H](CC[C@]3(C)[C@@H](c4ccc(=O)oc4)CC[C@@]32O)[C@@]2(C)CC[C@H](O[C@@H]3O[C@H](CO)[C@@H](O)[C@H](O)[C@H]3O)C=C12 [SCILLIROSIDE, scilliroside]
DAYS TO KILL (Rats [2]; bait conc. 50 ppm): 2 days
Kill (%) (Rats [2]; bait conc. 50 ppm): 100%

O=C(O)CF [SODIUM FLUOROACETATE, Sodium fluoroacetate]
DAYS TO KILL (Rats [2]; bait conc. 250 ppm): 2 days
Kill (%) (Rats [2]; bait conc. 250 ppm): 100%

CNC(=O)O/N=C/C(C)(C)SC [aldicarb, 2 methyl-2-(methylthio) propionaldehyde 0-(methylcarbamoyl) oxime]
Kill Rat (female Wistar rats; Day 1): 0 out of 5
Kill Rat (female Wistar rats; Day 2): 0 out of 5
Kill Rat (female Wistar rats; Day 3): 0 out of 5
kills recorded (female Wistar rats; 100 ppm aldicarb, rats, after 3 days exposure): no kills
Kill Mouse (male LACA mice [3]; Day 1): 0 out of 10
Kill Mouse (male LACA mice [3]; Day 2): 0 out of 10
Kill Mouse (male LACA mice [3]; Day 3): 0 out of 10
Kill Mouse (male LACA mice [3]; Day 4): 0 out of 10
kills recorded (male LACA mice [3]; 100 ppm aldicarb, mice, after 4 days exposure): no kills
Kill (Wistar females; Day 1): 2 out of 5
Kill (Wistar females; Day 3): Remaining rat killed
Kill ([4]; Day 1): 3 out of 5
Kill ([4]; Day 3): Remaining rat killed
Kill (male LACA mice [5]; [16]): 40%
mice killed (total of Example 4) (male LACA mice [5]; [16]): 4 out of 10
Kill (male LACA mice [5]; formulation A, one 0.5 mg particle per 10 grams of oatmeal, Day 1): 1 out of 10
Kill (male LACA mice [6]; formulation A 0.2 mg aldicarb particles, Example 5): 100%
Kill (male LACA mice [6]; formulation A, one 0.2 mg particle per 2 grams of oatmeal, Day 1): 4 out of 10
Kill (male LACA mice [7]): 2 out of 5
Kill [8]: All killed
Mouse bait particles Rat Kill ([9]; Day 1): 0/5
Mouse bait particles Rat Kill ([9]; Day 2): 0/5
Mouse bait particles Rat Kill ([9]; Day 3): 0/5
Mouse bait particles Rat Kill ([9]; Day 4): 0/5
Mouse bait particles Rat Kill ([9]; Day 5 to 7): 0/5
kill of rats feeding on the mouse bait ([9]; 0.1 mg particles, 50 ppm bait, seven days of feeding): not killed even after seven days
Mouse bait particles Mouse Kill (male 12-18 gram LAC mice; Day 1): 4 out of 10
Mouse bait particles Mouse Kill (male 12-18 gram LAC mice; Day 3): Remaining mouse died
death of all animals (male 12-18 gram LAC mice; all mice feeding on the 0.1 mg particles, 50 ppm bait): died by the end of the third day
Rat bait particles Rat Kill ([10]; Day 1): 2 out of 5
Rat bait particles Rat Kill ([10]; Day 3): Remaining rat died
death of all animals ([10]; all rats feeding on the 1 mg particles, 50 ppm bait): died by the end of the third day
death of mice ([11]; 100 ppm aldicarb on 0.4 x 0.4 mm particles): All mice died
Mouse Kill % [11, 17]: 100%
Mouse Kill % [11, 18]: 30%
Mouse Kill % ([11]; 100 ppm as HOMOGENEOUS): 0%
Rat Kill % [12, 17]: 0%
Rat Kill % [12, 18]: 100%
Rat Kill % ([12]; 100 ppm as HOMOGENEOUS): 0%
mortality at 120 h (in vivo): 0%
death of rabbits [13]: No rabbits died
Kill (%) (Rats [14]; 60—80 g Weaner RATS, particle 0.75 × 0.75 mm): 100%
Kill (%) (Rats [14]; 60—80 g Weaner RATS, particle 1.0 × 1.0 mm): 100%
Kill (%) (Rats [14]; 60—80 g Weaner RATS, particle 1.5 × 3.0 mm): 80%
Kill (%) (Rats [14]; 300—400 g Adult RATS, particle 0.75 × 0.75 mm): 50%
Kill (%) (Rats [14]; 300—400 g Adult RATS, particle 1.0 × 1.0 mm): 100%
Kill (%) (Rats [14]; 300—400 g Adult RATS, particle 1.5 × 3.0 mm): 100%
Kill (%) (mice [15]; 12—10 g. Weaner MICE, particle 0.2 × 0.5 mm): 60%
Kill (%) (mice [15]; 12—10 g. Weaner MICE, particle 0.4 × 0.4 mm): 100%
Kill (%) (mice [15]; 12—10 g. Weaner MICE, particle 0.5 × 0.5 mm): 70%
Kill (%) (mice [15]; 12—10 g. Weaner MICE, particle 0.75 × 0.75 mm): 57%
Kill (%) (mice [15]; 20—25 g Adult MICE, particle 0.2 × 0.5 mm): 0%
Kill (%) (mice [15]; 20—25 g Adult MICE, particle 0.4 × 0.4 mm): 100%
Kill (%) (mice [15]; 20—25 g Adult MICE, particle 0.5 × 0.5 mm): 100%
